Values of other authors in patent US9040545B2, “Heterocyclyl pyrazolopyrimidine analogues as selective JAK inhibitors” (Cellzome Limited, priority 2010, dated 2015).

Experiments:
[1] = literature; cited from earlier work
[2] = literature; cited from earlier work; remark: listed apart in the source
[3] = NOD mouse, literature; cited from earlier work

Compound	efficacy in an animal model of organ transplantation [1]	severity of GVHD [2]	spontaneous autoimmune diabetes development [3]
C[C@@H]1CCN(C(=O)CC#N)C[C@@H]1N(C)c1ncnc2[nH]ccc12 [CP-690,550]	efficacy		
COc1cc2ncnc(Nc3ccc(O)cc3)c2cc1OC [JANEX-1]		attenuate the severity of GVHD	prevent spontaneous autoimmune diabetes development
